# Reference: patent US20150307520A1, “NOVEL HETEROARYL AND HETEROCYCLE COMPOUNDS, COMPOSITIONS AND METHODS THEREOF” (HUTCHISON MEDIPHARMA LIMITED, priority 2012, published 2015)
# How the values were obtained:
# Assay type in all cases: biochemical
# [1] = target: p110β/p85α (Homo sapiens, UniProt P42338); assay: Transcreener KINASE Assay, kinase inhibition of p110β/p85α; conditions: for PI3Kβ IH % @ 1 uM: 1 uM test compound; for IC50: read-out: PI3Kβ IC50
# Method: (§1) PI3K kinases including p110α/p85α, p110δ/p85α and p110γ are purchased from Invitrogen, and p110β/p85α is from Millipore.
# (§2) Primary screening data and IC50 values are measured using Transcreener™ KINASE Assay (Bellbrook, Catalog #3003-10K). […] It is a universal, homogenous, high throughput screening (HTS) technology using a far-red, competitive fluorescence polarization immunoassay based on the detection of ADP to monitor the activity of enzymes that catalyze group transfer reactions. Briefly, the Transcreener KINASE Assay is designed as a simple two-part, endpoint assay.
# (§3) In the first step, the 25 ul kinase reaction is performed by preparing a reaction mixture containing 5 ul test compound (2% DMSO final concentration), 10 ul kinase, buffer (50 mM HEPES, 100 mM NaCl, 1 mM EGTA, 0.03% CHAPS, 3 mM MgCl2, and freshly supplemented 1 mM DTT), and 10 ul 30 uM PIP2/10 uM ATP. The plate is sealed and incubated for 80 min at room temperature. Next, 25 ul ADP detection mix is added per well. The plate is sealed again and incubated for 60 min at room temperature, and then measure fluorescence polarization by Tecan Infinite F500 Reader.
# (§4) Data is analyzed and IC50s are generated using the add-in software for Microsoft Excel, Xlfit™ (version 2.0). IH %=(ADP amount under 2% DMSO-ADP amount under test compound)/ADP amount under 2% DMSO.
# [2] = target: p110δ/p85α (Homo sapiens, UniProt O00329); assay: Transcreener KINASE Assay, kinase inhibition of p110δ/p85α; conditions: for PI3Kδ IH % @ 1 uM: 1 uM test compound; for IC50: read-out: PI3Kδ IC50
# p110δ/p85α, sequence (O00329 whole entry): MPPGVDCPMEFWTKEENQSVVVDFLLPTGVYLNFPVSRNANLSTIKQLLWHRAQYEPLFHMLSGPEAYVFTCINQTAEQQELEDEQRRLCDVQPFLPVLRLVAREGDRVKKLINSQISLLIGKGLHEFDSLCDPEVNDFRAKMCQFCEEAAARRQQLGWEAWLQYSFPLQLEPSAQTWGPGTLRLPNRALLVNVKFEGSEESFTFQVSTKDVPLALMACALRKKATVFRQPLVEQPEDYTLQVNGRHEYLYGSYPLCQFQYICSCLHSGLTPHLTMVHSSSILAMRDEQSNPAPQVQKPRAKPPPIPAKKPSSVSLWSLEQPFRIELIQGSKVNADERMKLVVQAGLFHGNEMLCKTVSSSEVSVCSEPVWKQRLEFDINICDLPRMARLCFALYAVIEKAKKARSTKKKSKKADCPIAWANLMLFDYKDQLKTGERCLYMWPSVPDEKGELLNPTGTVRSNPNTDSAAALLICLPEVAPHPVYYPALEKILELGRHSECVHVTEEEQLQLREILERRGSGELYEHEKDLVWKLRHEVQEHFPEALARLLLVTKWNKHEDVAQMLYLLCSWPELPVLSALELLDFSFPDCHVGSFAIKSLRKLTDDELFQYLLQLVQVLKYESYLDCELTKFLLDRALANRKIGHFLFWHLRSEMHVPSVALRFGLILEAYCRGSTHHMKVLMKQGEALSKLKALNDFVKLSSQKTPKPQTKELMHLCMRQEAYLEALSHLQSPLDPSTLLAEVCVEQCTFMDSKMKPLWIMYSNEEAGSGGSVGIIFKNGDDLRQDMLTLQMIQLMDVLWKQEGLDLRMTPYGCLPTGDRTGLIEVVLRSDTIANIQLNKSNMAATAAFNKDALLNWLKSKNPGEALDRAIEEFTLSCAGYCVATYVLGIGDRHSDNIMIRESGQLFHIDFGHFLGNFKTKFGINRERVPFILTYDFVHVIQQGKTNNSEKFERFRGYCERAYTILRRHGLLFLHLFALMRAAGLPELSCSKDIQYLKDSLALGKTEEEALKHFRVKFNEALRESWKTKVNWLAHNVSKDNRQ
# p110δ/p85α, sequence (P27986 whole entry partner): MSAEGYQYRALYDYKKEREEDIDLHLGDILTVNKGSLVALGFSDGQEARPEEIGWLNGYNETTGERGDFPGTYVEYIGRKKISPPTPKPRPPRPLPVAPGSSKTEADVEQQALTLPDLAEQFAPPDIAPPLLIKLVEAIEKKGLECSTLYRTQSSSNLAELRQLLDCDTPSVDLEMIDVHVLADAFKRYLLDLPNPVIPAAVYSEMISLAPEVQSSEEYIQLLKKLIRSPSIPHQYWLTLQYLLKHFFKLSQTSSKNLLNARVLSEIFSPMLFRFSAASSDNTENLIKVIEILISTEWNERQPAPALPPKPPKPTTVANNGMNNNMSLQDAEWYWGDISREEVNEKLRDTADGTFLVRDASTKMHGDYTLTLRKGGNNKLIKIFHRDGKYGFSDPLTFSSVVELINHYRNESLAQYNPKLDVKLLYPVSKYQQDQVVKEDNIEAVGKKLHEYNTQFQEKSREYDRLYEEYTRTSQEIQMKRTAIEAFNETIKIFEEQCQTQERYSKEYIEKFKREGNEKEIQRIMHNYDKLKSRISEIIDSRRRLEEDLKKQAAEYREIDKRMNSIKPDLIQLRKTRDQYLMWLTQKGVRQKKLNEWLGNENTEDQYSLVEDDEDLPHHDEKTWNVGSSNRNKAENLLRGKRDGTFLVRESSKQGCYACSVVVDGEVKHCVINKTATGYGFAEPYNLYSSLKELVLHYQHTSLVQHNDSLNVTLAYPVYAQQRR
# Method: as §1, §2, §3, §4
# [3] = target: p110γ (Homo sapiens, UniProt P48736); assay: Transcreener KINASE Assay, kinase inhibition of p110γ; conditions: for PI3Kγ IH % @ 1 uM: 1 uM test compound; for IC50: read-out: PI3Kγ IC50
# p110γ, sequence (P48736 whole entry): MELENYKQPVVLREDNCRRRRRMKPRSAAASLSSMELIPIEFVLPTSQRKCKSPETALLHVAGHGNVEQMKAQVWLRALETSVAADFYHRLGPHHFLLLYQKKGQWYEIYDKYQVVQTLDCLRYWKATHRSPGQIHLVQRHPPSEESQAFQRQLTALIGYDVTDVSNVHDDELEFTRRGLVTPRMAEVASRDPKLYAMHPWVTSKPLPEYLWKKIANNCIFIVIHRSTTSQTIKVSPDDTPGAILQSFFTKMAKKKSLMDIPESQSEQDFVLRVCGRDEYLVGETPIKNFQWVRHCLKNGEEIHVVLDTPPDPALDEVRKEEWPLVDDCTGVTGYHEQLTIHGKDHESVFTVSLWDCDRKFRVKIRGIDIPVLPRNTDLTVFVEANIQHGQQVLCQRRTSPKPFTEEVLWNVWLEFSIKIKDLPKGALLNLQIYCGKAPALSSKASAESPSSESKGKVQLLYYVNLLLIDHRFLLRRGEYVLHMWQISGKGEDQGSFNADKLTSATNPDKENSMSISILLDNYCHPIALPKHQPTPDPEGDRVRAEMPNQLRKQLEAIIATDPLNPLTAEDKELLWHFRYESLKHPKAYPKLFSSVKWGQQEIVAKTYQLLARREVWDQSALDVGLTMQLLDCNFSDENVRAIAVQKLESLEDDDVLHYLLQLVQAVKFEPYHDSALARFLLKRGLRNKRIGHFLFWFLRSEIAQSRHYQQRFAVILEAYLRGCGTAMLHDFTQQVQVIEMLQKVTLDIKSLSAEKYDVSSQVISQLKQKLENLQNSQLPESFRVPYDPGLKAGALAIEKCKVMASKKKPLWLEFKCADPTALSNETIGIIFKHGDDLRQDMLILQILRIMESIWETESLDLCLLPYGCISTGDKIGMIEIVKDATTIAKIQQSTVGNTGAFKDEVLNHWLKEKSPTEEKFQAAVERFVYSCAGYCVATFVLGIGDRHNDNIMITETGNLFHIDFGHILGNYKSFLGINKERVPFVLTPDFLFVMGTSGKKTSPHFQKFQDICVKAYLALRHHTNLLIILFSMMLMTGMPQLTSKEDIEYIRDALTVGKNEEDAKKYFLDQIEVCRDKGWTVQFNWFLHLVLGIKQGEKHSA
# Method: Kinase Inhibition assays of p110α/p85α, p110β/p85α, p110δ/p85α and p110γ PI3K kinases including p110α/p85α, p110δ/p85α and p110γ are purchased from Invitrogen, and p110β/p85α is from Millipore. Primary screening data and IC50 values are measured using Transcreener™ KINASE Assay (Bellbrook, Catalog #3003-10K). […] It is a universal, homogenous, high throughput screening (HTS) technology using a far-red, competitive fluorescence polarization immunoassay based on the detection of ADP to monitor the activity of enzymes that catalyze group transfer reactions. Briefly, the Transcreener KINASE Assay is designed as a simple two-part, endpoint assay. […] The plate is sealed and incubated for 80 min at room temperature. Next, 25 ul ADP detection mix is added per well. The plate is sealed again and incubated for 60 min at room temperature, and then measure fluorescence polarization by Tecan Infinite F500 Reader. Data is analyzed and IC50s are generated using the add-in software for Microsoft Excel, Xlfit™ (version 2.0).
# p110β/p85α, sequence (P42338 whole entry): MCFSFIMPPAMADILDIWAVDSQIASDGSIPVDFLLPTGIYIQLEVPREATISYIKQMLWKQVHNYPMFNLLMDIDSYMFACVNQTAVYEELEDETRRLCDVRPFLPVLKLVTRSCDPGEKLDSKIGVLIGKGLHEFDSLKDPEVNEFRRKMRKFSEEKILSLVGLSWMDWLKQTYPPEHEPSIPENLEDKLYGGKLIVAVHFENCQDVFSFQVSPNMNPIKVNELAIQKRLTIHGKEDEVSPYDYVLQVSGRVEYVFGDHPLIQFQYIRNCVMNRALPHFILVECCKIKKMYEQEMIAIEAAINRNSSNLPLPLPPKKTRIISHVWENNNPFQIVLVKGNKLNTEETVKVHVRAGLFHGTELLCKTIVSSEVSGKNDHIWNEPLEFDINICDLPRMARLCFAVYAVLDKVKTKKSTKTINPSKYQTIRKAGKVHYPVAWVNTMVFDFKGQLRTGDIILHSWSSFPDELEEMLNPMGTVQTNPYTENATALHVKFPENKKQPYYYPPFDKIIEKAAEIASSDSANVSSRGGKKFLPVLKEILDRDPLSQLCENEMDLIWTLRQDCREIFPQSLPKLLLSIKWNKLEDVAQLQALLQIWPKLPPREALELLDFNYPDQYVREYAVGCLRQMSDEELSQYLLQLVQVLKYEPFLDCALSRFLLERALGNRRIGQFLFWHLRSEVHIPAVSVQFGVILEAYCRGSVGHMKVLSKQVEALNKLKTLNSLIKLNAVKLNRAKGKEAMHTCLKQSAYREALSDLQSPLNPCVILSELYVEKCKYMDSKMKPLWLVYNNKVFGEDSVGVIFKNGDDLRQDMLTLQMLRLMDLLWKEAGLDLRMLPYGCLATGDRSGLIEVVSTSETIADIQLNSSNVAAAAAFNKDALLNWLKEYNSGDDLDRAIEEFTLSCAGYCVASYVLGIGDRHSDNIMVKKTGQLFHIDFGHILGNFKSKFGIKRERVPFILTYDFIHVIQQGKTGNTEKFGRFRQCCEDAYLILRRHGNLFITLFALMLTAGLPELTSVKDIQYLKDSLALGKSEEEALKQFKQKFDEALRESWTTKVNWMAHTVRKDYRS
# p110β/p85α, sequence (P27986 2-724 partner): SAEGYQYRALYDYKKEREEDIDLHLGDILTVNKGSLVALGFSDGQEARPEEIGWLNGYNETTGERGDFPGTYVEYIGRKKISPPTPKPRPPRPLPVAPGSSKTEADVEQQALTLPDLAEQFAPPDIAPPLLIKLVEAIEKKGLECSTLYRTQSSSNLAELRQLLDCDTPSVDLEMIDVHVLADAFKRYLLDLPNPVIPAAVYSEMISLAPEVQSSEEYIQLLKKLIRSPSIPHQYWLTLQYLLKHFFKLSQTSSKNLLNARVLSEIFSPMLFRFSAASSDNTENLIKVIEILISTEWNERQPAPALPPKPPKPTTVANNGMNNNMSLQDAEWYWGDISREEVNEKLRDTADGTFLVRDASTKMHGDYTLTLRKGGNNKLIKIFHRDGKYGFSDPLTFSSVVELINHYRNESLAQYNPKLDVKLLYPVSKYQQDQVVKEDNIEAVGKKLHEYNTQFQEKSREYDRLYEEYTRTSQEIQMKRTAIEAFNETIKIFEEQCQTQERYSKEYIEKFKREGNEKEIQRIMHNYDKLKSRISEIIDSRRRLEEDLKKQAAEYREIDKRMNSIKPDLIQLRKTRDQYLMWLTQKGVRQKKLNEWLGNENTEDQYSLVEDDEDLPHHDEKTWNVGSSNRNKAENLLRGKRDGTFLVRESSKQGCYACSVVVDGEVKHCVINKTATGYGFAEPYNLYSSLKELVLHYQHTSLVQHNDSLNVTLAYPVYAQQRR
smiles,measurement,setting,value
N#Cc1c[nH]c2ncnc(N3CC[C@H]3c3nn4ccc(Cl)c4c(=O)n3Cc3cccnc3)c12 [Compound 61],PI3Kβ IH % @ 1 uM,[1],7.9%
same,PI3Kδ IH % @ 1 uM,[2],73.9%
same,IC50,[2],309 nM
same,PI3Kγ IH % @ 1 uM,[3],45.1%
Cn1c([C@@H]2CCCN2c2ncnc3[nH]cc(C#N)c23)nn2ccc(Cl)c2c1=O [Compound 63],PI3Kβ IH % @ 1 uM,[1],93.7%
same,IC50,[1],61 nM
same,PI3Kδ IH % @ 1 uM,[2],97.7%
same,PI3Kγ IH % @ 1 uM,[3],>100%
same,IC50,[3],81 nM
N#Cc1c[nH]c2ncnc(N3CCC[C@H]3c3nn4ccc(Cl)c4c(=O)n3CC(F)(F)F)c12 [Compound 67],PI3Kβ IH % @ 1 uM,[1],71.3%
same,IC50,[1],188 nM
same,PI3Kδ IH % @ 1 uM,[2],98.1%
same,IC50,[2],7 nM
same,PI3Kγ IH % @ 1 uM,[3],61.0%
O=c1c2c(Cl)ccn2nc([C@@H]2CCCN2c2ncnc3[nH]cnc23)n1Cc1ccccn1 [Compound 68],PI3Kβ IH % @ 1 uM,[1],52.1%
same,PI3Kδ IH % @ 1 uM,[2],98.5%
same,IC50,[2],28 nM
same,PI3Kγ IH % @ 1 uM,[3],73.8%
same,IC50,[3],78 nM
N#Cc1c[nH]c2ncnc(N3C[C@@H](O)C[C@H]3c3nn4ccc(Cl)c4c(=O)n3-c3ccccc3)c12 [Compound 71],PI3Kβ IH % @ 1 uM,[1],>100%
same,IC50,[1],31 nM
same,PI3Kδ IH % @ 1 uM,[2],>100%
same,IC50,[2],1 nM
same,PI3Kγ IH % @ 1 uM,[3],>100%
same,IC50,[3],9 nM
"CO[C@@H]1C[C@@H](c2nn3ccc(Cl)c3c(=O)n2-c2ccccc2)N(c2ncnc3[nH]cnc23)C1 [Compound 72, 5-chloro-2-((2S,4R)-4-methoxy-1-(9H-purin-6-yl)pyrrolidin-2-yl)-3-phenylpyrrolo[2,1-f][1,2,4]triazin-4(3H)-one]",PI3Kβ IH % @ 1 uM,[1],13.5%
same,PI3Kδ IH % @ 1 uM,[2],91.6%
same,IC50,[2],88 nM
same,PI3Kγ IH % @ 1 uM,[3],49.5%
N#Cc1c[nH]c2ncnc(N3C[C@@H](F)C[C@H]3c3nn4ccc(Cl)c4c(=O)n3-c3ccccc3)c12 [Compound 74],PI3Kβ IH % @ 1 uM,[1],>100%
same,IC50,[1],25 nM
same,PI3Kδ IH % @ 1 uM,[2],>100%
same,IC50,[2],1 nM
same,PI3Kγ IH % @ 1 uM,[3],>100%
"CC(Nc1ncnc2[nH]cnc12)c1cn2ccc(Cl)c2c(=O)n1-c1cccc(F)c1 (stereo not drawn) [Compound 75, 3-(1-(9H-purin-6-ylamino)ethyl)-8-chloro-2-(3-fluorophenyl)pyrrolo[1,2-a]pyrazin-1(2H)-one]",PI3Kβ IH % @ 1 uM,[1],69.3%
same,IC50,[1],96 nM
same,PI3Kδ IH % @ 1 uM,[2],99.1%
same,IC50,[2],3 nM
same,PI3Kγ IH % @ 1 uM,[3],97.3%
same,IC50,[3],8 nM
CC(Nc1ncnc2[nH]cc(C#N)c12)c1cn2ccc(Cl)c2c(=O)n1-c1cccc(F)c1 (stereo not drawn) [Compound 76],PI3Kβ IH % @ 1 uM,[1],82.0%
same,IC50,[1],104 nM
same,PI3Kδ IH % @ 1 uM,[2],98.8%
same,PI3Kγ IH % @ 1 uM,[3],93.9%
CC(Nc1ncnc2[nH]cnc12)c1cn2ccc(Cl)c2c(=O)n1-c1ccc(F)cc1 (stereo not drawn) [Compound 78],PI3Kβ IH % @ 1 uM,[1],92.4%
same,PI3Kδ IH % @ 1 uM,[2],98.2%
same,PI3Kγ IH % @ 1 uM,[3],91.2%
CC(Nc1ncnc(N)c1C#N)c1cn2ccc(Cl)c2c(=O)n1-c1ccc(F)cc1 (stereo not drawn) [Compound 79],PI3Kβ IH % @ 1 uM,[1],96.3%
same,PI3Kδ IH % @ 1 uM,[2],99.0%
same,PI3Kγ IH % @ 1 uM,[3],91.6%
CC(Nc1ncnc2[nH]cnc12)c1cn2ccc(Cl)c2c(=O)n1-c1cc(F)cc(F)c1 (stereo not drawn) [Compound 80],PI3Kβ IH % @ 1 uM,[1],58.9%
same,PI3Kδ IH % @ 1 uM,[2],>100%
same,PI3Kγ IH % @ 1 uM,[3],83.5%
CC(Nc1ncnc(N)c1C#N)c1cn2ccc(Cl)c2c(=O)n1-c1cc(F)cc(F)c1 (stereo not drawn) [Compound 81],PI3Kβ IH % @ 1 uM,[1],79.0%
same,IC50,[1],217 nM
same,PI3Kδ IH % @ 1 uM,[2],>100%
same,PI3Kγ IH % @ 1 uM,[3],87.9%
CC(Nc1ncnc2[nH]cc(C#N)c12)c1cn2cccc2c(=O)n1-c1ccccc1 (stereo not drawn) [Compound 82],PI3Kβ IH % @ 1 uM,[1],56.4%
same,PI3Kδ IH % @ 1 uM,[2],98.7%
same,PI3Kγ IH % @ 1 uM,[3],78.6%
same,IC50,[3],194 nM
CC(Nc1ncnc2[nH]cnc12)c1cn2cccc2c(=O)n1-c1ccccc1 (stereo not drawn) [Compound 83],PI3Kβ IH % @ 1 uM,[1],42.7%
same,PI3Kδ IH % @ 1 uM,[2],97.3%
same,PI3Kγ IH % @ 1 uM,[3],78.6%
same,IC50,[3],309 nM
CC(Nc1ncnc2[nH]cc(C#N)c12)c1cn2ccc(Cl)c2c(=O)n1-c1ccccc1 (stereo not drawn) [Compound 88],PI3Kβ IH % @ 1 uM,[1],94.7%
same,IC50,[1],58 nM
same,PI3Kδ IH % @ 1 uM,[2],93.2%
same,PI3Kγ IH % @ 1 uM,[3],98.0%
same,IC50,[3],14 nM
CC(Nc1ncnc(N)c1C#N)c1cn2ccc(Cl)c2c(=O)n1-c1ccccc1 (stereo not drawn) [Compound 89],PI3Kβ IH % @ 1 uM,[1],96.1%
same,IC50,[1],17 nM
same,PI3Kδ IH % @ 1 uM,[2],>100%
same,PI3Kγ IH % @ 1 uM,[3],94.8%
"Cc1ccn2cc(C(C)Nc3ncnc(N)c3C#N)n(-c3ccccc3)c(=O)c12 (stereo not drawn) [Compound 90, 4-amino-6-(1-(8-methyl-1-oxo-2-phenyl-1,2-dihydropyrrolo[1,2-a]pyrazin-3-yl)ethylamino)pyrimidine-5-carbonitrile]",PI3Kβ IH % @ 1 uM,[1],93.1%
same,IC50,[1],24 nM
same,PI3Kδ IH % @ 1 uM,[2],>100%
same,PI3Kγ IH % @ 1 uM,[3],95.7%
same,IC50,[3],34 nM
"CC(Nc1ncnc2[nH]cnc12)c1cn2ccc(-c3cnn(C)c3)c2c(=O)n1-c1ccccc1 (stereo not drawn) [Compound 93, 3-(1-(9H-purin-6-ylamino)ethyl)-8-(1-methyl-1H-pyrazol-4-yl)-2-phenylpyrrolo[1,2-a]pyrazin-1(2H)-one]",PI3Kβ IH % @ 1 uM,[1],5.4%
same,PI3Kδ IH % @ 1 uM,[2],77.6%
same,IC50,[2],244 nM
same,PI3Kγ IH % @ 1 uM,[3],53.7%
NC(=O)c1c[nH]c2ncnc(N3CCC[C@H]3c3nn4ccc(Cl)c4c(=O)n3-c3ccccc3)c12 [Compound 95],PI3Kβ IH % @ 1 uM,[1],82.0%
same,IC50,[1],36 nM
same,PI3Kδ IH % @ 1 uM,[2],97.6%
same,IC50,[2],1 nM
same,PI3Kγ IH % @ 1 uM,[3],>100%
same,IC50,[3],7 nM
CNC(=O)c1c[nH]c2ncnc(N3CCC[C@H]3c3nn4ccc(Cl)c4c(=O)n3-c3ccccc3)c12 [Compound 96],PI3Kβ IH % @ 1 uM,[1],73.4%
same,IC50,[1],169 nM
same,PI3Kδ IH % @ 1 uM,[2],97.3%
same,IC50,[2],24 nM
same,PI3Kγ IH % @ 1 uM,[3],94.3%
same,IC50,[3],71 nM
CN(C)C(=O)c1c[nH]c2ncnc(N3CCC[C@H]3c3nn4ccc(Cl)c4c(=O)n3-c3ccccc3)c12 [Compound 97],PI3Kβ IH % @ 1 uM,[1],45.1%
same,PI3Kδ IH % @ 1 uM,[2],55.1%
same,PI3Kγ IH % @ 1 uM,[3],84.6%
same,IC50,[3],144 nM
COc1ncc(-c2c[nH]c3ncnc(N4CC[C@H]4c4nn5ccc(Cl)c5c(=O)n4-c4ccccc4)c23)cn1 [Compound 100],PI3Kβ IH % @ 1 uM,[1],89.8%
same,IC50,[1],6 nM
same,PI3Kδ IH % @ 1 uM,[2],>100%
same,IC50,[2],1 nM
same,PI3Kγ IH % @ 1 uM,[3],>100%
same,IC50,[3],5 nM
COc1ccc(-c2c[nH]c3ncnc(N4CC[C@H]4c4nn5ccc(Cl)c5c(=O)n4-c4ccccc4)c23)cn1 [Compound 102],PI3Kβ IH % @ 1 uM,[1],92.3%
same,IC50,[1],61 nM
same,PI3Kδ IH % @ 1 uM,[2],>100%
same,IC50,[2],1 nM
same,PI3Kγ IH % @ 1 uM,[3],>100%
same,IC50,[3],14 nM
N#Cc1ncc(-c2c[nH]c3ncnc(N4CC[C@H]4c4nn5ccc(Cl)c5c(=O)n4-c4ccccc4)c23)cn1 [Compound 103],PI3Kβ IH % @ 1 uM,[1],>100%
same,IC50,[1],46 nM
same,PI3Kδ IH % @ 1 uM,[2],99.7%
same,IC50,[2],1 nM
same,PI3Kγ IH % @ 1 uM,[3],98.2%
same,IC50,[3],19 nM
Nc1ncc(-c2c[nH]c3ncnc(N4CC[C@H]4c4nn5ccc(Cl)c5c(=O)n4-c4ccccc4)c23)cn1 [Compound 104],PI3Kβ IH % @ 1 uM,[1],>100%
same,IC50,[1],17 nM
same,PI3Kδ IH % @ 1 uM,[2],>100%
same,PI3Kγ IH % @ 1 uM,[3],>100%
same,IC50,[3],3 nM
"C#Cc1ccn2nc([C@@H]3CCN3c3ncnc4[nH]cc(C#N)c34)n(-c3ccccc3)c(=O)c12 [Compound 105, (S)-4-(2-(5-ethynyl-4-oxo-3-phenyl-3,4-dihydropyrrolo[2,1-f][1,2,4]triazin-2-yl)azetidin-1-yl)-7H-pyrrolo[2,3-d]pyrimidine-5-carbonitrile]",PI3Kβ IH % @ 1 uM,[1],16.0%
same,PI3Kδ IH % @ 1 uM,[2],90.0%
same,IC50,[2],15 nM
same,PI3Kγ IH % @ 1 uM,[3],90.4%
same,IC50,[3],80 nM
"CC(C)Cn1c([C@@H]2CCCN2c2ncnc3[nH]cc(C#N)c23)nn2c(F)ccc2c1=O [Compound 107, (S)-4-(2-(7-fluoro-3-isobutyl-4-oxo-3,4-dihydropyrrolo[2,1-f][1,2,4]triazin-2-yl)pyrrolidin-1-yl)-7H-pyrrolo[2,3-d]pyrimidine-5-carbonitrile]",PI3Kβ IH % @ 1 uM,[1],34.5%
same,PI3Kδ IH % @ 1 uM,[2],98.6%
same,IC50,[2],5 nM
same,PI3Kγ IH % @ 1 uM,[3],71.8%
same,IC50,[3],153 nM
